Reference: US8921267B2, “Safening 6-(trisubstituted phenyl)-4-amino-2-pyridinecarboxylate herbicide injury on cereal crops” (Dow AgroSciences LLC, priority 2008, dated 2014)

Columns and labels:
Format in all cases: in vivo
[1] = test system: purple deadnettle (Lamium purpureum L; LAMPU); assay: Postemergence herbicidal activity, greenhouse, visual injury: purple deadnettle; parameters: key: visual injury, 0–100%: 0 = no injury, 100 = complete kill; settings: applied alone
Experimental: (§1) Evaluation of Postemergence Herbicidal Safening in Cereal Crops
(§2) Seeds of the desired test plant species were planted in Sun Gro MetroMix® 306 planting mixture, which typically has a pH of 6.0 to 6.8 and an organic matter content of about 30 percent, in plastic pots with a surface area of 103.2 square centimeters (cm^2). When required to ensure good germination and healthy plants, a fungicide treatment and/or other chemical or physical treatment was applied. The plants were grown for 7-36 days (d) in a greenhouse with an approximate 14-hour (h) photoperiod which was maintained at about 18° C. during the day and 17° C. during the night. Nutrients and water were added on a regular basis and supplemental lighting was provided with overhead metal halide 1000-Watt lamps as necessary. The plants were employed for testing when they reached the second or third true leaf stage.
(§3) Weighed amounts of esters (methyl) or salts (TEA [triethylammonium], K [potassium]) of 4-amino-3-chloro-6-(4-chloro-2-fluoro-3-methoxyphenyl)pyridine-2-carboxylic acid (Compound 1) were dissolved in a volume of 97:3 volume/volume (v/v) acetone/dimethylsulfoxide (DMSO) to obtain stock solutions. […] The concentrated stock solutions were diluted with an aqueous mixture of 1.5% v/v of Agri-dex crop oil concentrate to provide the appropriate application rates. Compound requirements are based upon a 12 mL application volume at a rate of 187 liters per hectare (L/ha). Stocks solutions of the safeners were prepared following the same procedure. Spray solutions of the safeners and experimental compound mixtures were prepared by adding the stock solutions to the appropriate amount of dilution solution to form a 12 mL spray solution with active ingredients in two-way combinations. Formulated compounds were applied to the plant material with an overhead Mandel track sprayer equipped with 8002E nozzles calibrated to deliver 187 L/ha over an application area of 0.503 square meters (m^2) at a spray height of 18 inches (43 centimeters (cm)) above average plant canopy. Control plants were sprayed in the same manner with the solvent blank.
(§4) The treated plants and control plants were placed in a greenhouse as described above and watered by sub-irrigation to prevent wash-off of the test compounds. After 20-22 d, the condition of the test plants as compared with that of the control plants was determined visually and scored on a scale of 0 to 100 percent where 0 corresponds to no injury and 100 corresponds to complete kill.
(§5) Colby's equation was used to determine the herbicidal effects expected from the mixtures (Colby, S. R. Calculation of the synergistic and antagonistic response of herbicide combinations. Weeds 1967, 15, 20-22.).
(§6) The following equation was used to calculate the expected activity of mixtures containing two active ingredients, A and B: Expected=A+B−(A×B/100)
(§7) A=observed efficacy of active ingredient A at the same concentration as used in the mixture.
(§8) B=observed efficacy of active ingredient B at the same concentration as used in the mixture.

[2] = test system: chickweed (Stellaria media L; STEME); assay: Postemergence herbicidal activity, greenhouse, visual injury: chickweed; parameters: key: visual injury, 0–100%: 0 = no injury, 100 = complete kill; settings: applied alone
Experimental: as §1, §2, §3, §4, §5, §6, §7, §8

[3] = test system: wild pansy (Viola tricolor L; VIOTR); assay: Postemergence herbicidal activity, greenhouse, visual injury: wild pansy; parameters: key: visual injury, 0–100%: 0 = no injury, 100 = complete kill; settings: for VIOTR Ob: applied alone
Experimental: as §1, §2, §3, §4, §5, §6, §7, §8

[4] = test system: cleavers (Galium aparine L; GALAP); assay: Postemergence herbicidal activity, greenhouse, visual injury: cleavers; parameters: key: visual injury, 0–100%: 0 = no injury, 100 = complete kill; settings: applied alone
Experimental: as §1, §2, §3, §4, §5, §6, §7, §8

[5] = test system: corn poppy (Papaver rhoeas L; PAPRH); assay: Postemergence herbicidal activity, greenhouse, visual injury: corn poppy; settings: applied alone
Experimental: as §1, §2, §3, §4, §5, §6, §7, §8

[6] = test system: scented mayweed (Matricaria chamomila L; MATCH); assay: Postemergence herbicidal activity, greenhouse, visual injury: scented mayweed; parameters: key: % visual injury: 0 = no injury, 100 = complete kill; settings: for MATCH Ob: applied alone
Experimental: as §1, §2, §3, §4, §5, §6, §7, §8

[7] = test system: barley (Hordeum vulgare L; HORVS); assay: Postemergence herbicidal safening, greenhouse, visual injury: barley; settings: for HORVS Ob: applied alone
Experimental: as §1, §2, §3, §4, §5, §6, §7, §8

[8] = test system: Russian thistle (Salsola iberica L; SASKR); assay: Postemergence herbicidal activity, greenhouse, visual injury: Russian thistle; parameters: key: visual injury, 0–100%: 0 = no injury, 100 = complete kill; settings: applied alone
Experimental: as §1, §2, §3, §4, §5, §6, §7, §8

[9] = test system: kochia (Kochia scoparia L; KCHSC); assay: Postemergence herbicidal activity, greenhouse, visual injury: kochia; parameters: key: % visual injury: 0 = no injury, 100 = complete kill; settings: applied alone
Experimental: as §1, §2, §3, §4, §5, §6, §7, §8

[10] = test system: wheat (Triticum aestivum L; TRZAS); assay: Postemergence herbicidal safening, greenhouse, visual injury: wheat; settings: for TRZAS Ob: applied alone
Experimental: as §1, §2, §3, §4, §5, §6, §7, §8

[11] = test system: wild buckwheat (Polygonum convolvulus L; POLCO); assay: Postemergence herbicidal activity, greenhouse, visual injury: wild buckwheat; settings: applied alone
Experimental: as §1, §2, §3, §4, §5, §6, §7, §8

[12] = test system: bird's-eye speedwell (Veronica persica L; VERPE); assay: Postemergence herbicidal activity, greenhouse, visual injury: bird's-eye speedwell; parameters: key: visual injury, 0–100%: 0 = no injury, 100 = complete kill; settings: applied alone
Experimental: as §1, §2, §3, §4, §5, §6, §7, §8

Which results are given for `CC1(C)OC(c2ccco2)CN1C(=O)C(Cl)Cl` (stereo not shown) [Furilazole (MON 13900)]?
LAMPU Ob ([1]; 17.5 g/ha): 0; LAMPU Ob ([1]; 35 g/ha): 0; LAMPU Ob ([1]; 70 g/ha): 0; LAMPU Ob ([1]; 140 g/ha): 0; STEME Ob ([2]; 17.5 g/ha): 0; STEME Ob ([2]; 35 g/ha): 0; STEME Ob ([2]; 70 g/ha): 0; STEME Ob ([2]; 140 g/ha): 0; VIOTR Ob ([3]; 17.5 g/ha): 0; VIOTR Ob ([3]; 35 g/ha): 0; VIOTR Ob ([3]; 70 g/ha): 0; VIOTR Ob ([3]; 140 g/ha): 0; GALAP Ob ([4]; 17.5 g/ha): 0; GALAP Ob ([4]; 35 g/ha): 0; GALAP Ob ([4]; 70 g/ha): 0; GALAP Ob ([4]; 140 g/ha): 0; PAPRH Ob ([5]; 17.5 g/ha): 0; PAPRH Ob ([5]; 35 g/ha): 0; PAPRH Ob ([5]; 70 g/ha): 0; PAPRH Ob ([5]; 140 g/ha): 0; MATCH Ob ([6]; 17.5 g/ha): 0; MATCH Ob ([6]; 35 g/ha): 0; MATCH Ob ([6]; 70 g/ha): 0; MATCH Ob ([6]; 140 g/ha): 0; HORVS Ob ([7]; 17.5 g/ha): 0%; HORVS Ob ([7]; 35 g/ha): 0%; HORVS Ob ([7]; 70 g/ha): 0%; HORVS Ob ([7]; 140 g/ha): 0%; SASKR Ob ([8]; 17.5 g/ha): 0; SASKR Ob ([8]; 35 g/ha): 0; SASKR Ob ([8]; 70 g/ha): 0; SASKR Ob ([8]; 140 g/ha): 0; KCHSC Ob ([9]; 17.5 g/ha): 0; KCHSC Ob ([9]; 35 g/ha): 0; KCHSC Ob ([9]; 70 g/ha): 0; KCHSC Ob ([9]; 140 g/ha): 0; TRZAS Ob ([10]; 17.5 g/ha): 0%; TRZAS Ob ([10]; 35 g/ha): 0%; TRZAS Ob ([10]; 70 g/ha): 0%; TRZAS Ob ([10]; 140 g/ha): 0%; POLCO Ob ([11]; 17.5 g/ha): 0; POLCO Ob ([11]; 35 g/ha): 0; POLCO Ob ([11]; 70 g/ha): 0; POLCO Ob ([11]; 140 g/ha): 0; VERPE Ob ([12]; 17.5 g/ha): 0; VERPE Ob ([12]; 35 g/ha): 0; VERPE Ob ([12]; 70 g/ha): 0; VERPE Ob ([12]; 140 g/ha): 0

Which results are given for `O=C(O)CNCP(=O)(O)O` [Glyphosate]?
VIOTR Ob (Observed values) ([3]; Glyphosate 52.5 g/ha alone): 52; MATCH Ob (Observed values) ([6]; Glyphosate 52.5 g/ha alone): 28; HORVS Ob (Observed values) ([7]; Glyphosate 52.5 g/ha alone): 13; TRZAS Ob (Observed values) ([10]; Glyphosate 52.5 g/ha alone): 48

`N#C/C(=N\OCC1OCCO1)c1ccccc1` [Oxabetrinil] was tested. Which “LAMPU Ob” value ([1]; 17.5 g/ha) did it give?
The value was 0.

And the “LAMPU Ob” value ([1]; 35 g/ha)?
The value was 0.

And the “LAMPU Ob” value ([1]; 70 g/ha)?
The value was 0.

And the “LAMPU Ob” value ([1]; 140 g/ha)?
The value was 0.

What about the “STEME Ob” value ([2]; 17.5 g/ha) of the same compound?
The value was 0.

What about the “STEME Ob” value ([2]; 35 g/ha) of the same compound?
Its value is 0.

What about the “STEME Ob” value ([2]; 70 g/ha) of the same compound?
Its value is 0.

And the “STEME Ob” value ([2]; 140 g/ha)?
Its value is 0.

And the “VIOTR Ob” value ([3]; 17.5 g/ha)?
Its value is 0.

What about the “VIOTR Ob” value ([3]; 35 g/ha) of the same compound?
Its value is 0.

And the “VIOTR Ob” value ([3]; 70 g/ha)?
Its value is 0.

What about the “VIOTR Ob” value ([3]; 140 g/ha) of the same compound?
The value was 0.

What about the “GALAP Ob” value ([4]; 17.5 g/ha) of the same compound?
The value was 0.

What about the “GALAP Ob” value ([4]; 35 g/ha) of the same compound?
Its value is 0.

And the “GALAP Ob” value ([4]; 70 g/ha)?
The value was 0.

What about the “GALAP Ob” value ([4]; 140 g/ha) of the same compound?
The value was 0.

And the “PAPRH Ob” value ([5]; 17.5 g/ha)?
Its value is 0.

What about the “PAPRH Ob” value ([5]; 35 g/ha) of the same compound?
Its value is 0.

And the “PAPRH Ob” value ([5]; 70 g/ha)?
Its value is 0.

And the “PAPRH Ob” value ([5]; 140 g/ha)?
The value was 0.

And the “MATCH Ob” value ([6]; 17.5 g/ha)?
The value was 0.

What about the “MATCH Ob” value ([6]; 35 g/ha) of the same compound?
Its value is 0.

And the “MATCH Ob” value ([6]; 70 g/ha)?
Its value is 0.

And the “MATCH Ob” value ([6]; 140 g/ha)?
Its value is 0.

And the HORVS Ob ([7]; 17.5 g/ha)?
Its HORVS Ob is 0%.

What about the HORVS Ob ([7]; 35 g/ha) of the same compound?
The HORVS Ob was 0%.

What about the HORVS Ob ([7]; 70 g/ha) of the same compound?
Its HORVS Ob is 0%.

And the HORVS Ob ([7]; 140 g/ha)?
Its HORVS Ob is 0%.

What about the “SASKR Ob” value ([8]; 17.5 g/ha) of the same compound?
Its value is 0.

What about the “SASKR Ob” value ([8]; 35 g/ha) of the same compound?
The value was 0.

What about the “SASKR Ob” value ([8]; 70 g/ha) of the same compound?
The value was 0.

And the “SASKR Ob” value ([8]; 140 g/ha)?
Its value is 0.

And the “KCHSC Ob” value ([9]; 17.5 g/ha)?
The value was 0.

And the “KCHSC Ob” value ([9]; 35 g/ha)?
The value was 0.

What about the “KCHSC Ob” value ([9]; 70 g/ha) of the same compound?
Its value is 0.

What about the “KCHSC Ob” value ([9]; 140 g/ha) of the same compound?
Its value is 0.

What about the TRZAS Ob ([10]; 17.5 g/ha) of the same compound?
The TRZAS Ob was 0%.

And the TRZAS Ob ([10]; 35 g/ha)?
The TRZAS Ob was 0%.

What about the TRZAS Ob ([10]; 70 g/ha) of the same compound?
The TRZAS Ob was 0%.

What about the TRZAS Ob ([10]; 140 g/ha) of the same compound?
The TRZAS Ob was 0%.

And the “POLCO Ob” value ([11]; 17.5 g/ha)?
Its value is 0.

What about the “POLCO Ob” value ([11]; 35 g/ha) of the same compound?
Its value is 0.

What about the “POLCO Ob” value ([11]; 70 g/ha) of the same compound?
The value was 0.

And the “POLCO Ob” value ([11]; 140 g/ha)?
The value was 0.

And the “VERPE Ob” value ([12]; 17.5 g/ha)?
Its value is 0.

And the “VERPE Ob” value ([12]; 35 g/ha)?
The value was 0.

What about the “VERPE Ob” value ([12]; 70 g/ha) of the same compound?
The value was 0.

What about the “VERPE Ob” value ([12]; 140 g/ha) of the same compound?
The value was 0.
